Assay results as given in patent US20020016293A1 (priority 2000, published 2002).
Where a name gives a salt, the structure may show the parent alone. Read-outs that look alike come from different tables or passages of the source. Non-standard residues stand in square brackets, D forms with d. Residues, ends and D or L forms follow the SMILES beside them. ξ: configuration not given here. *: point of attachment. NMeI = CC[C@H](C)[C@H](NC)C(=O)O; NMeξIle = CC[C@H](C)C(NC)C(=O)O; NMeD = CN[C@@H](CC(=O)O)C(=O)O; NMeV = CN[C@H](C(=O)O)C(C)C; Pip = O=C(O)[C@@H]1CCCCN1; Lac = C[C@H](O)C(=O)O; OtBu = CC(C)(C)O*

Legend:
[1] = cited from earlier work; for absorption (in words): oral unless stated
p-glycoprotein [2] = conditions: cited from earlier work
p-glycoprotein [3] = conditions: cited from earlier work; remark: listed apart in the source
[4] = test system: multidrug resistant cells; conditions: no change in nonresistant parental cells; cited from earlier work
[5] = Plasma pharmacokinetics of flavopiridol and flavopiridol glucuronide in metastatic renal cancer patients (HPLC); type: in vivo, human
Description: All patients had metastatic renal cancer. […] Written informed consent was obtained from each patient in accordance with institutional and Federal guidelines. […] Toxicity assessment was done according to the Cancer and Leukemia Group B (CALGB) expanded toxicity criteria. For grade 3 or greater diarrheal episodes, patients were given loperamide or diphenoxylate hydrochloride plus atropine sulfate (Lomotil®). If diarrhea continued, treatment with octreotide acetate was begun. […] Heparinized blood samples were drawn at 23, 47, and 71 h into the infusion. Plasma was separated immediately by centrifugation and stored at −70° C. until analysis. Chemicals were obtained from Fisher Scientific (Itasca, Ill.) and Sigma Chemical Co. (St. Louis, Mo.). Quantitation of flavopiridol and its glucuronide in plasma was performed by high-pressure liquid chromatography (HPLC). […] Louis, Mo.), and these samples were incubated for 2 h (25° C.) prior to the addition of acetonitrile. […] Human plasma for the preparation of calibration standards was purchased from the Blood Bank at the University of Chicago Hospitals. […] Plasma samples for pharmacokinetics were collected during the first cycle of treatment (at 23, 47, and 71 h). […] Data are expressed as median values and interquartile range (the range of values between the 25th and the 75th percentile of the distribution). Significance has been tested by two-sided statistical tests. […] Moreover, Fisher's exact test was used to assess the association of flavopiridol systemic metabolism with the development of diarrhea. The distribution of the metabolic ratios at 71 h was investigated by constructing a frequency distribution histogram.

[6] = FLAVO glucuronidation assay, normal human liver microsomes; type: in vitro ADME; conditions: pooled human liver microsomes, pH 7.4; pool of human liver microsomes, substrate 0.1 to 3 mM, Lineweaver-Burke
Description: FLAVO glucuronidation assay. Reaction conditions were optimized using a range of substrate (0.02-1 mM), human liver microsomal protein (0.25-6 mg/ml) and UDPGA (2-10 mM) concentrations, as well as varying detergents (Brij 58, OLPC, CHAPS, Triton X-100, OLPC), and incubation times (0.5-4 h). […] The final incubation volume (250 μl) contained 50 mM tris-HCl (pH 7.4), 10 mM magnesium chloride, 0.5 mM FLAVO, 3 mg/ml protein, and 3 mM UDPGA. After incubation in a shaking water bath at 37° C. for 3 h, the reaction was terminated by the addition of 1 ml of acetonitrile. […] The supernatant was spiked with 100 μl of internal standard (100 μg/ml flavone in acetonitrile), and evaporated to dryness using nitrogen gas. Control experiments were performed simultaneously by omitting UDPGA. […] Aliquots (125 μl) were analyzed by high performance liquid chromatography (HPLC; Hitachi Instruments, Inc., San Jose, Calif., USA) with UV detection (265 nm). Reversed-phase chromatography was carried out using a μBondapak Phenyl column (10 μm, 3.9×300 mm; Waters Corporation, Milford, Mass., USA), and a μBondapak Phenyl guard-pak insert (Waters Corporation, Milford, Mass., USA).
Data analysis and statistics. Results were expressed as mean ± standard deviation (SD) of a single experiment performed in triplicate. […]

[7] = Diarrhea (CALGB expanded toxicity criteria) in patients given flavopiridol, by glucuronidation phenotype; type: in vivo, human
Description: Toxicity assessment was done according to the Cancer and Leukemia Group B (CALGB) expanded toxicity criteria. For grade 3 or greater diarrheal episodes, patients were given loperamide or diphenoxylate hydrochloride plus atropine sulfate (Lomotil®). If diarrhea continued, treatment with octreotide acetate was begun.
Data are expressed as median values and interquartile range (the range of values between the 25th and the 75th percentile of the distribution). Significance has been tested by two-sided statistical tests. […] For this analysis, the adjusted P<0.017 (0.05/3) was considered significant.
Poor and extensive glucuronidators had metabolic ratios lower and higher than 1.2, respectively.

neoplastic cells = conditions: in vitro; cited from earlier work
[8] = test system: p-glycoprotein expressing cell lines; conditions: cited from earlier work

## CCN1CCN(C(=O)N[C@@H](C(=O)N[C@@H]2C(=O)N3C(C(=O)O)=C(CSc4nnnn4C)CS[C@H]23)c2ccc(O)cc2)C(=O)C1=O [Cefoperazone]
[1]; human, in vivo
  eliminated by biliary secretion: 70%
  eliminated by urinary excretion: 30%

## CN(C)CCCN1c2ccccc2Sc2ccc(Cl)cc21 [Chlorpromazine hydrochloride, 10H-Phenothiazine-10-propanamine, 2-chloro-N,N-dimethyl-, mono hydrochloride]
[1]; intramuscular
  volume of distribution after intramuscular administration: 21.8 L/kg

## CCOC(=O)C(C)(C)Oc1ccc(Cl)cc1 [Clofibrate, propanoic acid, 2-(4-chlorophenoxy)-2-methyl-,ethyl ester]
[1]; anuria
  half-life in anuria: over 100 hr
[1]; human, in vivo
  half-life, average or usual value: 11 h
[1]; mostly to a glucuronide conjugate
  fraction metabolized: About 60%

## O=C1CN=C(c2ccccc2Cl)c2cc([N+](=O)[O-])ccc2N1 [Clonazepam, 2H-1,4-Benzodiazepin-2-one, 5-(2-chlorophenyl)-1,3-dihydro-7-nitro-]
[1]; human, in vivo
  therapeutic plasma levels: 20 to 80 ng/mL

## OCCN1CCN(CCCN2c3ccccc3Sc3ccc(C(F)(F)F)cc32)CC1 [Fluphenazine hydrochloride]
[1]
  absorption (in words): absorbed rapidly

## CCOC(=O)C1=C(C)NC(C)=C(C(=O)OC)C1c1cccc([N+](=O)[O-])c1 (centres unmarked) [Nitrendipine, 3,5-Pyridinedicarboxylic acid, 1,4-dihydro-2,6-dimethyl-4-(3-nitrophenyl)-, ethyl methyl ester]
[1]; human, in vivo
  bound to plasma protein: About 98%
  half-life, average or usual value: 12 h

## CCC1(c2ccccc2)C(=O)NC(=O)NC1=O [Phenobarbital, 2,4,6(1H,3H,5H)-Pyrimidinetrione, 5-ethyl-5-phenyl-]
[1]; human, in vivo, po
  fraction of an oral dose absorbed: Approximately 80%
[1]; human, in vivo
  therapeutic plasma levels: 10000 to 30000 ng/mL
  time to peak plasma levels: 16 to 18 h

## O=C1NC(=O)C(c2ccccc2)(c2ccccc2)N1.[Na] [Phenytoin Sodium, 2,4-Imidazolidinedione, 5,5-diphenyl-, monosodium salt]
[1]; human, in vivo
  lethal plasma levels: ~100 µg/mL

## CCCN(CCC)S(=O)(=O)c1ccc(C(=O)O)cc1 [Probenecid]
[1]
  absorption (in words): completely absorbed

## CC(C)NCC(O)COc1cccc2ccccc12 (centres unmarked) [Propranolol]
[1]; human, in vivo
  bound to plasma protein: Approximately 90%
[1]; inter-individual
  variability in plasma concentrations after oral administration: approximately 20 fold

## C=C[C@H]1C[N@@]2CC[C@H]1C[C@@H]2[C@@H](O)c1ccnc2ccc(OC)cc12 [Quinidine]
[1]; human, in vivo
  elimination by hepatic biotransformation: 50-60%

## COC(=O)[C@H]1[C@H]2C[C@@H]3c4[nH]c5cc(OC)ccc5c4CCN3C[C@H]2C[C@@H](OC(=O)c2cc(OC)c(OC)c(OC)c2)[C@@H]1OC [Reserpine, Yohimban-16-carboxylic acid, 11,17-dimethoxy-18-[(3,4,5-trimethoxybenzoyl)oxy]-, methyl ester, (3β, 16β, 17α, 18β, 20α)-]
[1]
  absorption (in words): absorbed poorly and erratically

## CC[C@H](C)C1C(=O)N(C)[C@@H]([C@@H](C)CC)C(=O)NCC(=O)N(C)[C@@H](C(C)C)C(=O)N[C@@H](Cc2ccc(OC)cc2)C(=O)O[C@@H](C)C(=O)N2CCCC[C@H]2C(=O)N(C)[C@@H](C(C)C)C(=O)N[C@@H](C(C)C)C(=O)N(C)[C@@H](CC(=O)OC(C)(C)C)C(=O)N1C (some centres unmarked) [SDZ 280-446] (cyclo(G[NMeV]Y(Me)[Lac][Pip][NMeV]V[NMeD](OtBu)[NMeξIle][NMeI]))
p-glycoprotein [2]
  p-glycoprotein inhibition relative to verapamil: stronger inhibitors than verapamil

## CC(C)(C)c1ccc(C(O)CCCN2CCC(C(O)(c3ccccc3)c3ccccc3)CC2)cc1 (stereo not drawn) [Terfenadine, 1-Piperidinebutanol, α-[4-(1,1-dimethylethyl)phenyl]-4-(hydroxydiphenylmethyl)-]
[1]; human, in vivo
  bound to plasma protein: 97%
[1]
  absorption (in words): absorbed rapidly and almost completely

## C[C@@H]1C[C@H]2[C@@H]3CCC4=CC(=O)C=C[C@]4(C)C3=CC[C@]2(C)[C@H]1C(=O)CN1CCN(c2cc(N3CCCC3)nc(N3CCCC3)n2)CC1 [Tirilazad]
p-glycoprotein [3]
  inhibition of photoaffinity labeling of p-glycoprotein relative to verapamil: more effectively than does verapamil
[4]
  sensitization of resistant cells to killing by vinblastine: 66 fold

## CN1CC[C@H](c2c(O[C@@H]3O[C@H](C(=O)O)[C@@H](O)[C@H](O)[C@H]3O)cc(O)c3c(=O)cc(-c4ccccc4Cl)oc23)[C@H](O)C1 [flavopiridol glucuronide, 7-O-β-glucopyranuronosyl-flavopiridol]
[5]; human, in vivo
  inter-patient variability of plasma level (coefficient of variation) at 23 h: 83%
  inter-patient variability of plasma level (coefficient of variation) at 47 h: 102%
  inter-patient variability of plasma level (coefficient of variation) at 71 h: 107%

## CN1CC[C@H](c2c(O)cc(O)c3c(=O)cc(-c4ccccc4Cl)oc23)[C@H](O)C1 [flavopiridol]
[6]
  Km at 3 h: 642 µM
[7]; extensive glucuronidators
  extensive glucuronidators who did not develop diarrhea: 73%
[7]; first cycle
  patients with grade 1 diarrhea: Five
  patients with grade 2 diarrhea: six
  patients with grade 3 diarrhea: two
[7]; metabolic ratio at 71 h higher than 1.2
  extensive glucuronidators who did not develop diarrhea: 8 of 11
[7]; metabolic ratio at 71 h lower than 1.2
  poor glucuronidators who developed diarrhea: 10 of 11
[7]; poor glucuronidators
  diarrhea present in poor glucuronidators of flavopiridol: 91%
[5]; 23 h
  inter-patient variability of plasma level (coefficient of variation) at 23 h: 81%
[5]; human, plasma, intravenous, 72 h-continuous infusion 50 mg/m2/day, first cycle, 23 h into the infusion, 22 patients, read-out: median plasma concentration (interquartile range) at 23 h
  concentration at 23 h: 389 nM
[5]; human, plasma, intravenous, 72 h-continuous infusion 50 mg/m2/day, first cycle, 47 h into the infusion, read-out: median plasma concentration (interquartile range) at 47 h
  concentration at 47 h: 412 nM
[5]; human, plasma, intravenous, 72 h-continuous infusion 50 mg/m2/day, first cycle, 71 h into the infusion, read-out: median plasma concentration (interquartile range) at 71 h
  concentration at 71 h: 397 nM
Neoplastic cells
  concentrations showing differential growth inhibitory activity: below 200 nM

## Cc1ccc(C)c(OCCCC(C)(C)C(=O)O)c1 [gemfibrozil]
[1]; single dose 600 mg
  plasma concentration after 2 hours: about 15 Ug/ml
  plasma concentration after 9 hours: ~5 Ug/ml

## CC[C@H](C)[C@H]1O[C@]2(CC[C@@H]1C)C[C@@H]1C[C@@H](C/C=C(\C)[C@@H](O[C@H]3C[C@H](OC)[C@@H](O[C@H]4C[C@H](OC)[C@@H](O)[C@H](C)O4)[C@H](C)O3)[C@@H](C)/C=C/C=C3\CO[C@@H]4[C@H](O)C(C)=C[C@@H](C(=O)O1)[C@]34O)O2 [ivermectin]
[1]; oral administration
  time to peak concentrations in plasma: ≤ 4 h
[1]; verapamil: normal persons
  half-life: about 10 hours

## OCCN1CCN(CC/C=C2\c3ccccc3Sc3ccc(C(F)(F)F)cc32)CC1 [trans-flupenthixol]
[8]
  potency for reversing MDR relative to equimolar concentrations of verapamil: two- to three-fold more potent
  reversal of resistance to doxorubicin, vincristine, and colchicine: fully reversed resistance

## benzothiazepin-4(5H)-one, 3-(acetyloxy)-5-[2-(dimethylamino)ethyl]-2,3-dihydro-2-(4-methoxyphenyl)-, (+)-cis-, monohydrochloride [Diltiazem]
[1]; human, in vivo
  bound to plasma protein: 70-80%
  drug appearing unchanged in the urine: Less than 4%
[1]; oral
  fraction of an oral dose absorbed: 80%
[1]; plasma/serum/elimination half-life as printed
  half-life: about 4 hr
